From US4443436A, “C-20-Modified macrolide derivatives of the macrolide antibiotics tylosin, desmycosin, macrocin, and lactenocin” (Eli Lilly and Company, priority 1982, dated 1984) come the findings set out here.

In brackets after ≈: the same amount, converted by molar mass. Like-named read-outs stand apart in the source and are kept apart here. A value given as a limit tells only on which side of the number the result lay.

In experiment [1] the test system is Staphylococcus aureus V41. As to the kind of experiment: MIC, standard agar-dilution assay, Staphylococcus aureus V41. Format: cell-based.
In experiment [2] the test system is Staphylococcus aureus X400. Description: MIC, standard agar-dilution assay, Staphylococcus aureus X400. It is filed as cell-based. The following applies: Staphylococcus aureus X400, methicillin-resistant strain, agar dilution. On the technique in general: In agar dilution, organisms are placed on agar that contains the substance at set levels.
The test system of experiment [3] is Pasteurella multocida 17E. Description: MIC, broth-dilution microtiter test, Pasteurella multocida 17E. It is filed as cell-based. The following applies: Pasteurella multocida 17E, bovine isolate, broth-dilution microtiter. From the text:
(§1) The MIC's in Table X were obtained using conventional broth-dilution microtiter tests.

The subject of a further experiment is Mycoplasma gallisepticum. Description: MIC, broth-dilution microtiter test, Mycoplasma gallisepticum. It is filed as cell-based.
From the text: as §1

Experiment [4] concerns Staphylococcus aureus X1.1. Description: MIC, standard agar-dilution assay, Staphylococcus aureus X1.1. It is filed as cell-based.
The next experiment relates to Mycoplasma hyopneumoniae. As to the kind of experiment: MIC, broth-dilution microtiter test, Mycoplasma hyopneumoniae. Format: cell-based.
From the text: as §1

The test system of a further experiment is Mycoplasma hyorhinis. Description: MIC, broth-dilution microtiter test, Mycoplasma hyorhinis. Format: cell-based.
From the text: as §1

Experiment [5] relates to Streptococcus pyogenes C203. Description: MIC, standard agar-dilution assay, Streptococcus pyogenes C203. It is filed as cell-based.
In experiment [6] the test system is Staphylococcus epidermidis EPI1. Description: MIC, standard agar-dilution assay, Staphylococcus epidermidis EPI1. Format: cell-based.
Experiment [7] relates to Pasteurella hemolytica 22C. As to the kind of experiment: MIC, broth-dilution microtiter test, Pasteurella hemolytica 22C. Format: cell-based. The following applies: Pasteurella hemolytica 22C, broth-dilution microtiter.
From the text: as §1

Experiment [8] has as its system Pasteurella multocida 60A. As to the kind of experiment: MIC, broth-dilution microtiter test, Pasteurella multocida 60A. Format: cell-based. The following applies: Pasteurella multocida 60A, avian isolate, broth-dilution microtiter.
From the text: as §1

The test system of another experiment is Streptococcus Group 9960. Description: MIC, standard agar-dilution assay, Streptococcus Group 9960. Format: cell-based. The following applies: Streptococcus Group 9960, agar dilution.
Experiment [9] concerns Staphylococcus epidermidis EPI2. Description: MIC, standard agar-dilution assay, Staphylococcus epidermidis EPI2. It is filed as cell-based.
Experiment [10] has as its system Staphylococcus aureus S13E. Description: MIC, standard agar-dilution assay, Staphylococcus aureus S13E. It is filed as cell-based.
The test system of a further experiment is Streptococcus bovis 80. Description: MIC, broth-dilution microtiter test, Streptococcus bovis 80. It is filed as cell-based.
From the text: as §1

The test system of experiment [11] is Streptococcus pneumoniae Park I. As to the kind of experiment: microbe, parasite or virus in culture. It is filed as cell-based. To be noted: Streptococcus pneumoniae Park I, agar dilution.
In another experiment the test system is Staphylococcus aureus. Description: MIC, broth-dilution microtiter test, Staphylococcus aureus. Format: cell-based.
From the text: as §1

The subject of experiment [12] is Streptococcus pyogenes C203. Description: In vivo protection of mice experimentally infected with S. pyogenes C203. To be noted: Streptococcus pyogenes, mice, doses given 1 and 4 hours post-infection. As for the experimental part: The C-20 modified derivatives of this invention have shown in vivo antimicrobial activity against experimentally-induced infections in laboratory animals. When two doses of test compound were administered to mice experimentally infected with S. pyogenes C203, the activity observed was measured as an ED50 value [effective dose in mg/kg to protect 50% of the test animals: see Warren Wick, et al., J. Bacteriol. 81, 233-235 (1961)].

A further experiment concerns Mycoplasma synoviae. As to the kind of experiment: MIC, broth-dilution microtiter test, Mycoplasma synoviae. It is filed as cell-based.
From the text: as §1

In experiment [13] the test system is Streptococcus Group D X66. As to the kind of experiment: MIC, standard agar-dilution assay, Streptococcus Group D X66. To be noted: Streptococcus Group D X66, agar dilution. It is filed as cell-based.
A further experiment concerns Pasteurella multocida. As to the kind of experiment: Subcutaneous treatment of Pasteurella multocida-infected chicks. It is filed as in vivo, one-day-old chicks. To be noted: 30 mg/kg × 2, 1 and 4 hours post-challenge. Here is the method: Many of the C-20 modified derivatives of this invention have also shown in vivo antibacterial activity against infections induced by gram-negative bacteria. Tables XII and XIII summarize the results of tests in which illustrative compounds were evaluated against Pasteurella infection in one-day-old chicks. The compounds were administered parenterally or orally after challenge of the chicks with Pasteurella multocida (0.1 ml of a 10^-4 dilution of a twenty-hour tryptose broth culture of an avian P. multocida given subcutaneously). In these tests, unless indicated otherwise, all non-medicated infected chicks died within 24 hours of Pasteurella challenge. In the tests summarized in Table XII the compounds were administered by subcutaneous injection at a dosage of 30 mg/kg, 1 and 4 hours post-challenge of the chicks with P. multocida. In the test summarized in Table XIII the compounds were administered by gavage at 1 and 5 hours post-challenge of the chicks with P. multocida.

Experiment [14] relates to Haemophilus influenzae R252. As to the kind of experiment: MIC, standard agar-dilution assay, Haemophilus influenzae R252. It is filed as cell-based. To be noted: Haemophilus influenzae R252; ampicillin-resistant strain; agar dilution.
Experiment [15] has as its system Haemophilus influenzae Holt. As to the kind of experiment: MIC, standard agar-dilution assay, Haemophilus influenzae Holt. It is filed as cell-based. To be noted: Haemophilus influenzae Holt; ampicillin-sensitive strain; agar dilution.

As for `CCC1OC(=O)CC(O)C(C)C(OC2OC(C)C(O)C(N(C)C)C2O)C(CCOC)CC(C)C(=O)C=CC(C)=CC1COC1OC(C)C(O)C(OC)C1OC` (centres unmarked) [Compound 30, 20-DH-20-O-Methyldesmycosin], the MIC in experiment [1] (Staphylococcus aureus, V41) was 0.5 µg/mL (≈ 0.635 µM); in [2] (read-out: MIC), 1 µg/mL (≈ 1.27 µM); in [3] (read-out: MIC), 25 µg/mL (≈ 31.7 µM); against Mycoplasma gallisepticum (Mycoplasmoides gallisepticum), 0.39 µg/mL (≈ 0.495 µM); in [4] (Staphylococcus aureus, X1.1), 0.5 µg/mL (≈ 0.635 µM); with Mycoplasma hyopneumoniae (Mesomycoplasma hyopneumoniae), 12.5 µg/mL (≈ 15.9 µM). Moreover, the MIC turned out to be 50 µg/mL (≈ 63.5 µM) in the experiment on Mycoplasma hyorhinis (Mycoplasma); 0.5 µg/mL (≈ 0.635 µM) in experiment [5] (Streptococcus pyogenes, C203); 0.5 µg/mL (≈ 0.635 µM) in experiment [6] (Staphylococcus epidermidis, EPI1); 25 µg/mL (≈ 31.7 µM) in experiment [7] (read-out: MIC); 25 µg/mL (≈ 31.7 µM) in experiment [8] (read-out: MIC); 16 µg/mL (≈ 20.3 µM) in the experiment on Streptococcus Group 9960 (GROUP9960, read-out: MIC). Besides, the MIC in experiment [9] (Staphylococcus epidermidis, EPI2) stood at 0.5 µg/mL (≈ 0.635 µM); in [10] (Staphylococcus aureus, S13E), 0.5 µg/mL (≈ 0.635 µM); against Streptococcus bovis 80 (Streptococcus equinus, 80), 12.5 µg/mL (≈ 15.9 µM); in [11] (read-out: MIC), 4 µg/mL (≈ 5.08 µM); with Staphylococcus aureus, 0.78 µg/mL (≈ 0.99 µM); against Mycoplasma synoviae (Mycoplasmopsis synoviae), 0.39 µg/mL (≈ 0.495 µM). For the same compound, the MIC in [13] (read-out: MIC) came out at 16 µg/mL (≈ 20.3 µM). The ED50 (as a rule, the midpoint of the dose-response relation) in [12] (C203, sc, subcutaneous, read-out: ED50, Subcutaneous) was greater than 6.3 mg/kg; in [12] (C203, oral, read-out: ED50, Oral) it was 25 mg/kg. Besides, in the experiment with Pasteurella multocida, the “Number of Deaths/Number Treated” value is listed as 10/10.

Take `CCC1OC(=O)CC(O)C(C)C(OC2OC(C)C(O)C(N(C)C)C2O)C(CCOc2cccnc2)CC(C)C(=O)C=CC(C)=CC1COC1OC(C)C(O)C(OC)C1OC` (centres unmarked) [Compound 49, 20-DH-20-O-(Pyridin-3-yl)desmycosin]: the MIC came to 0.5 µg/mL (≈ 0.588 µM) in experiment [1] (Staphylococcus aureus V41, penicillin-resistant strain, agar dilution); 16 µg/mL (≈ 18.8 µM) in [14]; 0.5 µg/mL (≈ 0.588 µM) in [2]; 25 µg/mL (≈ 29.4 µM) in experiment [3]; 0.78 µg/mL (≈ 0.917 µM) with Mycoplasma gallisepticum (Mycoplasma gallisepticum, broth-dilution microtiter); 0.5 µg/mL (≈ 0.588 µM) in experiment [4] (Staphylococcus aureus X1.1, agar dilution). Also, the MIC in the experiment with Mycoplasma hyopneumoniae (Mycoplasma hyopneumoniae, broth-dilution microtiter) amounted to 25 µg/mL (≈ 29.4 µM); against Mycoplasma hyorhinis (Mycoplasma hyorhinis, broth-dilution microtiter), 50 µg/mL (≈ 58.8 µM); in experiment [5] (Streptococcus pyogenes C203, agar dilution), 2 µg/mL (≈ 2.35 µM); in experiment [6] (Staphylococcus epidermidis EPI1, agar dilution) it was 0.5 µg/mL (≈ 0.588 µM); in [7] it was 25 µg/mL (≈ 29.4 µM); in experiment [15], 16 µg/mL (≈ 18.8 µM). Also, the MIC came to 25 µg/mL (≈ 29.4 µM) in experiment [8]; 16 µg/mL (≈ 18.8 µM) with Streptococcus Group 9960; 0.25 µg/mL (≈ 0.294 µM) in experiment [9] (Staphylococcus epidermidis EPI2, agar dilution); 0.5 µg/mL (≈ 0.588 µM) in [10] (Staphylococcus aureus S13E, agar dilution); 25 µg/mL (≈ 29.4 µM) against Streptococcus bovis 80 (Streptococcus bovis 80, broth-dilution microtiter); 2 µg/mL (≈ 2.35 µM) in experiment [11]. The MIC with Staphylococcus aureus (broth-dilution microtiter) was 1.56 µg/mL (≈ 1.83 µM); against Mycoplasma synoviae (Mycoplasma synoviae, broth-dilution microtiter) it was 3.12 µg/mL (≈ 3.67 µM); in [13], 16 µg/mL (≈ 18.8 µM). Also, in the experiment on Pasteurella multocida, the “Number of Deaths/Number Treated” value was 9/10.
